Reference: patent US12180193B2, “Accelerating fibrosarcoma protein degrading compounds and associated methods of use” (Arvinas Operations, Inc., priority 2020, dated 2024)

How the values were obtained:
[1] = target: T1, BRAF G466V (Homo sapiens, UniProt P15056, G466V); test: Cellular assay of target protein degradation, T-Rex 293 cells stably transfected with HA-BRAF G466V (HA immunofluorescence, high content imaging); format: cell-based; conditions: T-Rex 293 HA-BRAF G466V; for DC50: half maximal degradation, read-out: BRaf G466V DC50; for Dmax: maximum degradation observed
T1 construct: expressed in transfected cells
In short: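 24 h compound, 30 nM–3 pM final, 0.1% DMSO, 37° C; HA-BRAF G466V induced with 0.75 ng/mL doxycycline. PFA fix, Triton perm, anti-HA + Alexa fluor secondary, Hoechst/phalloidin counterstain; imaging. DC50, Dmax (% of control).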

[2] = target: T2, BRAF V600E (Homo sapiens, UniProt P15056, V600E); test: Cellular assay of target protein degradation, T-Rex 293 cells stably transfected with HA-BRAF_V600E (HA immunofluorescence, high content imaging); format: cell-based; conditions: T-Rex 293 HA-BRAF V600E; for DC50: half maximal degradation, read-out: BRaf V600E DC50; for Dmax: maximum degradation observed
T2 construct: expressed in transfected cells
In short: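 24 h compound exposure, 1 μM–0.1 nM final, 0.1% DMSO, 37 °C; cells induced with 1 ng/mL doxycycline. PFA fix, Triton permeabilize, anti-HA overnight 4 °C, Hoechst/phalloidin counterstain. Output: DC50, Dmax as % control.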

T1 sequence (P15056 whole entry G466V): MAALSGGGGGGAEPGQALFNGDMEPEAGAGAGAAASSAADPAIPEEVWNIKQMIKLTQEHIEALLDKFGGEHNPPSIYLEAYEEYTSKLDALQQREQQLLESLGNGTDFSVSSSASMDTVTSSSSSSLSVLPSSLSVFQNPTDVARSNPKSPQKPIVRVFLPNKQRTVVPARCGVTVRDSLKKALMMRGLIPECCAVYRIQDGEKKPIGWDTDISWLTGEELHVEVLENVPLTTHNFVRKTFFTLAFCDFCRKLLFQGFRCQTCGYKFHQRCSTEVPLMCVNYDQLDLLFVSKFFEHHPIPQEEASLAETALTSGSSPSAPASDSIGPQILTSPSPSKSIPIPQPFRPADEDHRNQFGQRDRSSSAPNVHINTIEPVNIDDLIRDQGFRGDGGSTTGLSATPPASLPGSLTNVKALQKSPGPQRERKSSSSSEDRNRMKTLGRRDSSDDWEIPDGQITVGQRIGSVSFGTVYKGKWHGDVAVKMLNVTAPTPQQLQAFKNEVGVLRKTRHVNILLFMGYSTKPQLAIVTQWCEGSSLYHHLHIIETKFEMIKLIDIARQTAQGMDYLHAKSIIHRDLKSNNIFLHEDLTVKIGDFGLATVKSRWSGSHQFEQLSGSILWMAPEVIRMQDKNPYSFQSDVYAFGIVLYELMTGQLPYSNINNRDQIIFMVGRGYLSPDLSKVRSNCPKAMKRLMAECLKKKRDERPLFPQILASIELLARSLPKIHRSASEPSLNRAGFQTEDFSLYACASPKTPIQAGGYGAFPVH
T2 sequence (P15056 whole entry V600E): as the sequence (P15056 whole entry G466V) above, with V466G, V600E counted along it

| DC50 [1] | Dmax [1] | DC50 [2] | Dmax [2] | SMILES |
| --- | --- | --- | --- | --- |
| 1 to 10 nM | > 70% | 50 to 500 nM | 35 to 70% | O=C1CCC(N2Cc3cc(OCCCOC4CCN(c5ccc(-c6cnc7[nH]cc(C(=O)c8c(F)ccc(NS(=O)(=O)N9CC[C@@H](F)C9)c8F)c7c6)cc5)CC4)ccc3C2=O)C(=O)N1 (stereo partly drawn) [Compound 139, (3R)-N-[3-(5-{4-[4-(3-{[2-(2,6-dioxopiperidin-3-yl)-1-oxo-2,3-dihydro-1H-isoindol-5-yl]oxy}propoxy)piperidin-1-yl]phenyl}-1H-pyrrolo[2,3-b]pyridine-3-carbonyl)-2,4-difluorophenyl]-3-fluoropyrrolidine-1-sulfonamide] |
| < 1 nM | 35 to 70% | 5 to 50 nM | 35 to 70% | O=C1CCN(c2ccc(C3CCN(CC4CCN(c5ccc(-c6cnc7[nH]cc(C(=O)c8c(F)ccc(NS(=O)(=O)N9CC[C@@H](F)C9)c8F)c7c6)cc5)CC4)CC3)cc2F)C(=O)N1 [Compound 140, (3R)-N-[3-(5-{4-[4-({4-[4-(2,4-dioxo-1,3-diazinan-1-yl)-3-fluorophenyl]piperidin-1-yl}methyl)piperidin-1-yl]phenyl}-1H-pyrrolo[2,3-b]pyridine-3-carbonyl)-2,4-difluorophenyl]-3-fluoropyrrolidine-1-sulfonamide] |
| 1 to 10 nM | > 70% | 5 to 50 nM | 35 to 70% | O=C1CCC(N2Cc3cc(CCCN4CC5(C4)CN(c4ccc(-c6cnc7[nH]cc(C(=O)c8c(F)ccc(NS(=O)(=O)N9CC[C@@H](F)C9)c8F)c7c6)cn4)C5)ccc3C2=O)C(=O)N1 (stereo partly drawn) [Compound 141, (3R)-N-(3-{5-[6-(6-{3-[2-(2,6-dioxopiperidin-3-yl)-1-oxo-2,3-dihydro-1H-isoindol-5-yl]propyl}-2,6-diazaspiro[3.3]heptan-2-yl)pyridin-3-yl]-1H-pyrrolo[2,3-b]pyridine-3-carbonyl}-2,4-difluorophenyl)-3-fluoropyrrolidine-1-sulfonamide] |
| 1 to 10 nM | > 70% | 5 to 50 nM | 35 to 70% | O=C1CCC(N2Cc3cc(N4CCC(O)(CN5CC6(C5)CN(c5ccc(-c7cnc8[nH]cc(C(=O)c9c(F)ccc(NS(=O)(=O)N%10CC[C@@H](F)C%10)c9F)c8c7)cc5)C6)CC4)ccc3C2=O)C(=O)N1 (stereo partly drawn) [Compound 142, (3R)—N-[3-[5-[4-[6-[[1-[2-(2,6-dioxo-3-piperidyl)-1-oxo-isoindolin-5-yl]-4-hydroxy-4-piperidyl]methyl]-2,6-diazaspiro[3.3]heptan-2-yl]phenyl]-1H-pyrrolo[2,3-b]pyridine-3-carbonyl]-2,4-difluoro-phenyl]-3-fluoro-pyrrolidine-1-sulfonamide] |
| 10 to 30 nM | 35 to 70% | 5 to 50 nM | < 35% | O=C1CCC(N2Cc3cc(N4CCC(COCC5CCN(c6ccc(-c7cnc8[nH]cc(C(=O)c9c(F)ccc(NS(=O)(=O)N%10CC[C@@H](F)C%10)c9F)c8c7)cc6)CC5)CC4)ccc3C2=O)C(=O)N1 (stereo partly drawn) [Compound 143, (3R)-N-{3-[5-(4-{4-[({1-[2-(2,6-dioxopiperidin-3-yl)-1-oxo-2,3-dihydro-1H-isoindol-5-yl]piperidin-4-yl}methoxy)methyl]piperidin-1-yl}phenyl)-1H-pyrrolo[2,3-b]pyridine-3-carbonyl]-2,4-difluorophenyl}-3-fluoropyrrolidine-1-sulfonamide] |
| 1 to 10 nM | > 70% | < 5 nM | 35 to 70% | O=C1CCC(N2Cc3cc(N4CCC(N5CCN(CC6CN(c7ccc(-c8cnc9[nH]cc(C(=O)c%10c(F)ccc(NS(=O)(=O)N%11CC[C@@H](F)C%11)c%10F)c9c8)cc7)C6)CC5)CC4)ccc3C2=O)C(=O)N1 (stereo partly drawn) [Compound 144, (3R)-N-{3-[5-(4-{3-[(4-{1-[2-(2,6-dioxopiperidin-3-yl)-1-oxo-2,3-dihydro-1H-isoindol-5-yl]piperidin-4-yl}piperazin-1-yl)methyl]azetidin-1-yl}phenyl)-1H-pyrrolo[2,3-b]pyridine-3-carbonyl]-2,4-difluorophenyl}-3-fluoropyrrolidine-1-sulfonamide] |

Further lines, the compound ahead of its results:

| SMILES | DC50 [1] | Dmax [1] | DC50 [2] | Dmax [2] |
| --- | --- | --- | --- | --- |
| O=C1CCC(N2Cc3cc(C[C@H](O)CN4CC5(C4)CN(c4ccc(-c6cnc7[nH]cc(C(=O)c8c(F)ccc(NS(=O)(=O)N9CC[C@@H](F)C9)c8F)c7c6)cc4)C5)ccc3C2=O)C(=O)N1 (stereo partly drawn) [Compound 130, (3R)-N-{3-[5-(4-{6-[(2S)-3-[2-(2,6-dioxopiperidin-3-yl)-1-oxo-2,3-dihydro-1H-isoindol-5-yl]-2-hydroxypropyl]-2,6-diazaspiro[3.3]heptan-2-yl}phenyl)-1H-pyrrolo[2,3-b]pyridine-3-carbonyl]-2,4-difluorophenyl}-3-fluoropyrrolidine-1-sulfonamide] | 1 to 10 nM | 35 to 70% | 5 to 50 nM | 35 to 70% |
| O=C1CCC(N2Cc3cc(N4CCN(CC5CN(c6ccc(-c7cnc8[nH]cc(C(=O)c9c(F)ccc(NS(=O)(=O)N%10CC[C@@H](F)C%10)c9F)c8c7)cc6F)C5)CC4)ccc3C2=O)C(=O)N1 (stereo partly drawn) [Compound 131, (3R)-N-[3-(5-{4-[3-({4-[2-(2,6-dioxopiperidin-3-yl)-1-oxo-2,3-dihydro-1H-isoindol-5-yl]piperazin-1-yl}methyl)azetidin-1-yl]-3-fluorophenyl}-1H-pyrrolo[2,3-b]pyridine-3-carbonyl)-2,4-difluorophenyl]-3-fluoropyrrolidine-1-sulfonamide] | 1 to 10 nM | 35 to 70% | 5 to 50 nM | 35 to 70% |
| COc1cc(N2CC3(CN(CC4CCN(c5ccc(-c6cnc7[nH]cc(C(=O)c8c(F)ccc(NS(=O)(=O)N9CC[C@@H](F)C9)c8F)c7c6)cc5F)CC4)C3)C2)cc2c1C(=O)N(C1CCC(=O)NC1=O)C2 (stereo partly drawn) [Compound 132, (3R)-N-[3-(5-{4-[4-({6-[2-(2,6-dioxopiperidin-3-yl)-7-methoxy-1-oxo-2,3-dihydro-1H-isoindol-5-yl]-2,6-diazaspiro[3.3]heptan-2-yl}methyl)piperidin-1-yl]-3-fluorophenyl}-1H-pyrrolo[2,3-b]pyridine-3-carbonyl)-2,4-difluorophenyl]-3-fluoropyrrolidine-1-sulfonamide] | < 1 nM | > 70% | 5 to 50 nM | 35 to 70% |
| COc1cc(N2CC3(CN(CC4CCN(c5ccc(-c6cnc7[nH]cc(C(=O)c8c(F)ccc(NS(=O)(=O)N9CC[C@@H](F)C9)c8F)c7c6)cn5)CC4)C3)C2)cc2c1C(=O)N(C1CCC(=O)NC1=O)C2 (stereo partly drawn) [Compound 133, (3R)-N-[3-(5-{6-[4-({6-[2-(2,6-dioxopiperidin-3-yl)-7-methoxy-1-oxo-2,3-dihydro-1H-isoindol-5-yl]-2,6-diazaspiro[3.3]heptan-2-yl}methyl)piperidin-1-yl]pyridin-3-yl}-1H-pyrrolo[2,3-b]pyridine-3-carbonyl)-2,4-difluorophenyl]-3-fluoropyrrolidine-1-sulfonamide] | < 1 nM | > 70% | 5 to 50 nM | 35 to 70% |
| COc1cc(N2CC3(CN(CC4CCN(c5ncc(-c6cnc7[nH]cc(C(=O)c8c(F)ccc(NS(=O)(=O)N9CC[C@@H](F)C9)c8F)c7c6)cn5)CC4)C3)C2)cc2c1C(=O)N(C1CCC(=O)NC1=O)C2 (stereo partly drawn) [Compound 134, (3R)-N-[3-(5-{2-[4-({6-[2-(2,6-dioxopiperidin-3-yl)-7-methoxy-1-oxo-2,3-dihydro-1H-isoindol-5-yl]-2,6-diazaspiro[3.3]heptan-2-yl}methyl)piperidin-1-yl]pyrimidn-5-yl}-1H-pyrrolo[2,3-b]pyridine-3-carbonyl)-2,4-difluorophenyl]-3-fluoropyrrolidine-1-sulfonamide] | < 1 nM | > 70% | 5 to 50 nM | 35 to 70% |
| O=C1CCC(N2Cc3cc(N4CCN(CCCC5CCN(c6ccc(-c7cnc8[nH]cc(C(=O)c9c(F)ccc(NS(=O)(=O)N%10CC[C@@H](F)C%10)c9F)c8c7)cc6)CC5)CC4)ccc3C2=O)C(=O)N1 (stereo partly drawn) [Compound 135, (3R)-N-[3-(5-{4-[4-(3-{4-[2-(2,6-dioxopiperidin-3-yl)-1-oxo-2,3-dihydro-1H-isoindol-5-yl]piperazin-1-yl}propyl)piperidin-1-yl]phenyl}-1H-pyrrolo[2,3-b]pyridine-3-carbonyl)-2,4-difluorophenyl]-3-fluoropyrrolidine-1-sulfonamide] | 1 to 10 nM | > 70% | 5 to 50 nM | 35 to 70% |
| O=C1CCN(c2ccc(N3CCN(CCc4ccc(-c5cnc6[nH]cc(C(=O)c7c(F)ccc(NS(=O)(=O)N8CC[C@@H](F)C8)c7F)c6c5)cc4)CC3)cc2F)C(=O)N1 [Compound 136, (3R)-N-(3-{5-[4-(2-{4-[4-(2,4-dioxo-1,3-diazinan-1-yl)-3-fluorophenyl]piperazin-1-yl}ethyl)phenyl]-1H-pyrrolo[2,3-b]pyridine-3-carbonyl}-2,4-difluorophenyl)-3-fluoropyrrolidine-1-sulfonamide] | > 30 nM | – | 50 to 500 nM | < 35% |
| O=C1CCC(N2Cc3cc(N4CCC(CCCN5CCN(c6ccc(-c7cnc8[nH]cc(C(=O)c9c(F)ccc(NS(=O)(=O)N%10CC[C@@H](F)C%10)c9F)c8c7)cc6)CC5)CC4)ccc3C2=O)C(=O)N1 (stereo partly drawn) [Compound 137, (3R)-N-[3-(5-{4-[4-(3-{1-[2-(2,6-dioxopiperidin-3-yl)-1-oxo-2,3-dihydro-1H-isoindol-5-yl]piperidin-4-yl}propyl)piperazin-1-yl]phenyl}-1H-pyrrolo[2,3-b]pyridine-3-carbonyl)-2,4-difluorophenyl]-3-fluoropyrrolidine-1-sulfonamide] | 1 to 10 nM | > 70% | 5 to 50 nM | 35 to 70% |
